According to patent publication US10463669B2, “Composition for treating or preventing liver cancer” (Seoul National University R&DB Foundation, priority 2016, dated 2019):

Columns and labels:
Type in all cases: cell-based, human
[1] = test system: telomerase activity in HCC cell lines (Huh7 and Hep3B); assay: Telomerase activity, TRAP assay
Protocol: (§1) To have quantitative determination of the telomerase activity, TRAP assay was carried out by using TRAPEZE® RT Telomerase Detection Kit (Millipore, Darmstadt, Germany; […]). According to the manual, the whole protein extract (100 ng) was used for each reaction.

[2] = test system: telomerase activity in THLE-3 cells; assay: Telomerase activity, TRAP assay; settings: 150 μmol/L H2O2-treated THLE-3 cells
Protocol: as §1

[3] = test system: AKT phosphorylation in HCC cell lines (Huh7 and Hep3B); assay: AKT phosphorylation, immunoblot assay; settings: HCC cells
Protocol: Medium was exchanged every day, and the aforementioned cells were cultured for 4 days in 300 μmol/L hydrogen peroxide (H2O2) (Sigma Aldrich; H1009). In several experiments, the cells were treated for 1 hour with 5 mmol/L N-acetylcysteine (NAC) (Sigma Aldrich; A7250), 25 μmol/L idelalisib (LC Laboratoties, Woburn, Mass., USA; I-7447), 25 μmol/L perifosine (LC Laboratoties, Woburn, Mass., USA; P-6522), or 30 μmol/L GSK3β inhibitor (GSK3β inhibitor XI) (Santa Cruz; sc-204770) (31) before adding H2O2. Furthermore, sterilized distilled water (pH 7.0) was used as a negative control (i.e., mock treatment).
Total 2×10^5 cells were boiled for 5 minutes in 2×SDS sample buffer (100 mmol/L TrisHCl [pH 6.8], 4% SDS, 0.2% bromophenol blue, 20% glycerol, and 200 mmol/L β-mercaptoethanol), and then subjected to SDS-PAGE and Western blotting. To detect the TERT, the cells were cultured in 2×SDS sample buffer for 15 minutes at 55° C. TERT-specific (1:300, Rockland Immunochemicals, Gilbertsville, Pa., USA; 600-401-252), AKT-specific (1:1000, Cell Signaling Technology; #9272), phospho-AKT-specific (1:2000, Cell Signaling Technology; #4060), GAPDH-specific (1:2000, Santa Cruz Biotechnology; sc-47724), or β-actin-specific (1:2000, Sigma-Aldrich, St. Louis, Mo., USA; A5441) antibody was diluted in 5% skim milk or bovine serum albumin with TBS-Tween 20, cultured overnight at 4° C., washed, and cultured with HRP-conjugated secondary antibody (1:1000, Abcam; ab131368, or ab131366). By using FUSION-SOLO imager (Vilber Lourmat, Marne La Vallee, France), a chemical fluorescence image was obtained.

[4] = test system: β-catenin and SetD1A binding to the TERT promoter in Huh7 cells; assay: Chromatin immunoprecipitation (ChIP) at the TERT promoter; settings: HCC (Huh7) cells, with or without 300 μmol/L H2O2
Protocol: As it has been described before (Lim S O, et al. Gastroenterology. 2008; 135: 2128-40, 40 el-8.; Hoffmeyer K, et al. Science. 2012; 336: 1549-54.), several modified ChIP (chromatin immunoprecipitation) tests were carried out. In the presence or absence of a PI3K inhibitor, an AKT inhibitor, or a GSK3β inhibitor, Huh7 cells were cultured for 4 days with or without a treatment of 300 μmol/L H2O2. Under mild shaking for 20 minutes at room temperature, the cells were fixed by using 1% paraformaldehyde. After that, the cells were rinsed twice with ice-cold PBS; resuspended with 400 μL of micrococcal nuclease buffer (50 mmol/L TrisHCl [pH 8.0], 5 mmol/L CaC12, 100 μg/mL BSA, 10 mmol/L KCl, and protease inhibitor cocktail [Roche, Basel, Switzerland; 4693159001]); and disrupted with 2 mm-diameter zirconium beads (Watson); to have micrococcal nuclease digestion (New England Biolabs, Beverly, Mass., USA; M0247S). Chromatin (150 μg) was collected and diluted in a dilution buffer (0.1% NP-40, 2 mmol/L EDTA, 150 mmol/L NaCl, 20 mmol/L TrisHCl [pH 8.0], protease inhibitor cocktail [Roche]), and a phosphatase inhibitor cocktail [Calbiochem]), and then subjected to pre-clearing with 2 μg digested salmon sperm DNA, 10 μL preimmune serum (Santa Cruz Biotechnology; sc-2027), and Dynabeads Protein G (Life Technologies; 1004D) for 2 hours at 4° C. After the immunoprecipitation, 20 μL of Dynabeads Protein G were added thereto and the culture was continued for 2 hours. The Dynabeads were washed continuously for 10 minutes with TSE 1 (0.1% SDS, 1% Triton X-100, 2 mmol/L EDTA, 20 mmol/L TrisHCl, and 150 mmol/L NaCl), TSE II (0.1% SDS, 1% Triton X-100, 2 mmol/L EDTA, 20 mmol/L TrisHCl, and 500 mmol/L NaCl), and buffer III (0.25 mol/L LiCl, 1% NP-40, 1% deoxycholate, 1 mmol/L EDTA, and 10 mmol/L TrisHCl). After that, the beads were washed 3 times with TE buffer, and extraction was made by using 1% SDS and 0.1 mol/L NaHCO3. To have reverse formaldehyde cross-linking, the elution solution was heated overnight at 65° C. By using NucleoSpin DNA clean-up kit, DNA debris were purified. By using primers specific to the TERT promoter region, the PCR amplified product was quantified by qPCR (ABI 7300; Applied Biosystems, Foster City, Calif., USA). The PCR amplification was normalized against the TERT intron. The primer sequences are as follows: β-catenin interaction site for ChIP (forward primer: TCCCGGGTCCCCGGCCCA (SEQ ID NO:8); reverse primer: […] (SEQ ID NO:9)) and TERT intron for ChIP (forward primer: […] (SEQ ID NO:10); reverse primer: […] (SEQ ID NO:11)). For each of the β-catenin interaction site which has been recorded before, 20-22 bp were added. The antibodies that are used are as follows: rabbit polyclonal anti-β-catenin (1:200, Abcam, Cambridge, Mass., USA; ab6302), mouse monoclonal anti-RNA polymerase II (1:50, Covance, Princeton, N.J., USA; MMS-126R), and rabbit polyclonal anti-SETD1A (1:100, Novus Biologicals, Littleton, Colo., USA; NBP1-81513).
Inventors of the present invention made an investigation to see whether or not the increased chromatin accessibility in TERT promoter during TERT transcription is related with β-catenin. To do so, by using intrinsic β-catenin and an antibody against histone methyl transferase SetD1A which has been reported to promote the TERT transcription based on chromatin remodeling, chromatin immunoprecipitation was carried out. When a PI3K or AKT inhibitor is treated together for chromatin immunoprecipitation, β-catenin and SetD1A, which bind to the TERT promoter in HCC cells, were reduced even in the presence of H2O2 (FIGS. 3A and 3B). However, when the treatment is carried out also with a GSK3p inhibitor, increased binding of β-catenin and SetD1A was shown regardless of a treatment with H2O2 (FIG. 3C).

Q: Which telomerase activity ([1]; 300 μmol/L H2O2-treated HCC cell lines) does the source give for `CC[C@H](Nc1ncnc2nc[nH]c12)c1nc2cccc(F)c2c(=O)n1-c1ccccc1` [idelalisib, 5-fluoro-3-phenyl-2-[(1S)-1-(7H-purin-6-ylamino)propyl]-4(3H)-quinazolinone] here?
A: reduced

Q: What about the “ROS-mediated increase in telomerase activity” value ([1]; H2O2-treated cells) of the same compound?
A: almost completely inhibited

Q: And the telomerase activity [2]?
A: not

Q: What about the pAKT [3] of the same compound?
A: inhibit

Q: What about the “SetD1A binding to the TERT promoter” value [4] of the same compound?
A: reduced

Q: What about the “β-catenin binding to the TERT promoter” value [4] of the same compound?
A: reduced
